Experimental findings from PubChem BioAssay (NCI) are described below.

Values joined by “and” are separate entries in the source; they are usually repeats but may differ in a detail not shown here. Equal entries are not always repeated.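 48-hour exposure; five concentrations; linearly interpolated endpoints. GI50: concentration for 50% inhibition of growth. TGI denotes the concentration required for complete inhibition of growth.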

Test systems include BT-549 breast; MOLT-4 leukemia; MDA-MB-231 breast; ACHN renal; M14 melanoma; HL-60(TB) leukemia; KM12 colon; SNB-19 CNS; CCRF-CEM leukemia; SK-MEL-5 melanoma.
Holding throughout (assay): NCI anticancer screen, dose series, 48 h

Turning to `Cc1ccc(/C=C2\CN(C(=O)OC(C)(C)C)C/C(=C\c3ccc(C)cc3)C2=O)cc1`, the GI50 with BT-549 breast is 0.221 µM; in the assay with MOLT-4 leukemia it was 0.805 µM; in the assay on MDA-MB-231 breast, 1.22 µM; in the assay on ACHN renal, 1.06 µM; in the assay with M14 melanoma, 0.0608 µM; in the assay with HL-60(TB) leukemia it was 0.0409 µM. Besides, the GI50 with KM12 colon is 0.149 µM; in the assay with SNB-19 CNS it was 0.226 µM; with CCRF-CEM leukemia, 0.587 µM. The TGI in the assay on BT-549 breast was 28.7 µM; with MOLT-4 leukemia it was greater than 41.9 µM; in the assay with MDA-MB-231 breast it was greater than 54.3 µM; with ACHN renal, greater than 100 µM; in the assay with M14 melanoma, greater than 100 µM; in the assay with HL-60(TB) leukemia it was 0.473 µM. The TGI in the assay with KM12 colon, in the assay on SNB-19 CNS and in the assay on CCRF-CEM leukemia was greater than 100 µM throughout.

Turning to `CC(C)(C)C#CC1=C(Br)C(=O)OC1`, the GI50 in the assay with BT-549 breast is 4.89 µM; in the assay with MOLT-4 leukemia it was 1.26 µM; with SK-MEL-5 melanoma, greater than 100 µM; in the assay on MDA-MB-231 breast it was 2.48 µM; in the assay with ACHN renal it was 0.266 µM; in the assay on M14 melanoma, 3.61 µM. For the same compound, the GI50 with KM12 colon was 1.32 µM; with SNB-19 CNS, 24.7 µM; in the assay on CCRF-CEM leukemia, 2.45 µM. Also, the TGI in the assay with BT-549 breast was 19.7 µM; with MOLT-4 leukemia, 5.03 µM; with SK-MEL-5 melanoma, greater than 100 µM; in the assay with MDA-MB-231 breast, 11 µM; in the assay with M14 melanoma, 27 µM; with KM12 colon it was 3.6 µM. For the same compound, the TGI in the assay on SNB-19 CNS is greater than 100 µM; with CCRF-CEM leukemia, greater than 27.7 µM.

`CCCN=Cc1cc(Cc2ccc(O)c(C=NCCC)c2)ccc1O`: the TGI is greater than 100 µM with BT-549 breast; 3.71 µM in the assay on MOLT-4 leukemia; 17.2 µM in the assay on SK-MEL-5 melanoma; 33.5 µM in the assay on MDA-MB-231 breast; 53.4 µM in the assay with ACHN renal; 7.35 µM with M14 melanoma. Further, the TGI with HL-60(TB) leukemia is 5 µM; with KM12 colon, 22 µM; in the assay with SNB-19 CNS, 12.2 µM.

As to `O=C1c2ccccc2-c2c1c1ccccc1c(=O)n2CCCNCCCNCCCn1c2c(c3ccccc3c1=O)C(=O)c1ccccc1-2`, the GI50 is 0.665 µM in the assay on BT-549 breast; less than 0.01 µM in the assay on MOLT-4 leukemia; 0.12 µM in the assay with SK-MEL-5 melanoma; less than 0.01 µM in the assay with MDA-MB-231 breast; less than 0.01 µM in the assay with ACHN renal; 0.333 µM in the assay on M14 melanoma. For the same compound, the GI50 is 0.028 µM in the assay on KM12 colon, 0.681 µM in the assay on SNB-19 CNS and less than 0.01 µM in the assay with CCRF-CEM leukemia. Besides, the TGI in the assay on BT-549 breast came to 2.08 µM; with SK-MEL-5 melanoma, 1.22 µM; in the assay with MDA-MB-231 breast it was 0.112 µM; in the assay with ACHN renal it was 0.388 µM; with M14 melanoma, 1.29 µM; with KM12 colon, 0.219 µM. The figures for the TGI with SNB-19 CNS and with CCRF-CEM leukemia were 4.1 µM and 0.175 µM, respectively.

For the compound `Nc1ccn(Cc2ccc(C34CC5CC(CC(C5)C3)C4)c(O)c2)c(=O)n1`, the GI50 is greater than 100 µM with BT-549 breast; 54.4 µM in the assay with MOLT-4 leukemia; 82.4 µM in the assay with SK-MEL-5 melanoma; greater than 100 µM in the assay on MDA-MB-231 breast; greater than 100 µM in the assay with ACHN renal; greater than 100 µM with M14 melanoma. The GI50 was 62.9 µM in the assay on HL-60(TB) leukemia, greater than 100 µM with KM12 colon and 89.1 µM with SNB-19 CNS. The TGI in the assay with BT-549 breast, in the assay with MOLT-4 leukemia, in the assay on SK-MEL-5 melanoma, in the assay with MDA-MB-231 breast, in the assay with ACHN renal and with M14 melanoma was greater than 100 µM in each case. Also, the TGI with HL-60(TB) leukemia, with KM12 colon and with SNB-19 CNS was greater than 100 µM each time.

Turning to `COc1cc(C2c3cc4c(cc3[C@@H](Nc3ccc(C#N)cc3)C3COC(=O)[C@H]23)OCO4)cc(OC)c1O` (stereo partly drawn), the GI50 in the assay on BT-549 breast is 1.71 µM; in the assay on MOLT-4 leukemia, 0.0307 µM; in the assay with SK-MEL-5 melanoma, 0.911 µM and 0.54 µM; in the assay with MDA-MB-231 breast it was 3.34 µM; with ACHN renal it was 0.128 µM; with KM12 colon, 1.13 µM and 1.61 µM. Moreover, the GI50 in the assay with SNB-19 CNS was 0.314 µM and 0.768 µM; in the assay on CCRF-CEM leukemia it was 0.147 µM. In addition, the TGI with BT-549 breast was 33.8 µM and 7.42 µM; in the assay with SK-MEL-5 melanoma, 4.68 µM and 2.68 µM and 2.06 µM; in the assay with MDA-MB-231 breast it was 25.6 µM and > 100 µM; in the assay with ACHN renal, 1.24 µM and 2.41 µM; with HL-60(TB) leukemia, 1.12 µM and 0.702 µM.

`C1CCSCCCCSCCCCSCCCCSC1`: the TGI in the assay with BT-549 breast, with SK-MEL-5 melanoma, in the assay with MDA-MB-231 breast, with ACHN renal, in the assay with M14 melanoma and in the assay with KM12 colon was greater than 100 µM in each case. The compound also displayed a TGI in the assay with SNB-19 CNS greater than 100 µM.

With `C=CCc1c2c(c(OC)c3ccoc13)C(=O)/C(=C/c1ccccc1OC)O2`, the GI50 with BT-549 breast is 4.44 µM; in the assay with MOLT-4 leukemia, 3.52 µM; in the assay with SK-MEL-5 melanoma, 3.91 µM; in the assay with MDA-MB-231 breast, 4.59 µM; in the assay on ACHN renal, 4.33 µM; in the assay with M14 melanoma, 8.19 µM. The GI50 in the assay on KM12 colon is 3.49 µM; with SNB-19 CNS it was 5.83 µM; with CCRF-CEM leukemia, 3.44 µM. Besides, the TGI in the assay with BT-549 breast is greater than 100 µM; with MOLT-4 leukemia, greater than 100 µM; in the assay with SK-MEL-5 melanoma it was 92 µM; with MDA-MB-231 breast, greater than 100 µM; in the assay with ACHN renal, greater than 100 µM; in the assay on M14 melanoma it was greater than 100 µM. Moreover, the figures for the TGI with KM12 colon, with SNB-19 CNS and with CCRF-CEM leukemia were 22.3 µM, greater than 100 µM and greater than 100 µM, respectively.

On to `COc1ccc(N2C(=O)c3c4c(c5c([nH]c6ncccc65)c3C2=O)CCC(C(C)(C)C)C4)cc1` (stereo not drawn), for which the TGI in the assay with BT-549 breast, in the assay with SK-MEL-5 melanoma, in the assay on MDA-MB-231 breast, with ACHN renal, with M14 melanoma and with HL-60(TB) leukemia was greater than 100 µM throughout. Also, the TGI with KM12 colon, in the assay with SNB-19 CNS and with CCRF-CEM leukemia was greater than 100 µM each time.

Take `CN(C)/C=C/c1nnc([N+](=O)[O-])s1`: the TGI is 34.7 µM with BT-549 breast; 24.3 µM in the assay on SK-MEL-5 melanoma; 85.9 µM with MDA-MB-231 breast; 31.9 µM in the assay with ACHN renal; 29.1 µM in the assay with M14 melanoma; 29.6 µM in the assay with KM12 colon. Moreover, the TGI with SNB-19 CNS is 79.3 µM.
